Assay results taken from the supplement of paper PMC10477900.
Counter-ions that a name gives are not always drawn.

Assays:
HCT116 [1] = conditions: 72 h
Protocol: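 HCT116 control and MTA1-KO (CRISPR) HCT116 cells were seeded in 384-well plates (800 cells/well), treated 16 h later with 237 metabolism-related anticancer drugs at five doses (10 uM, 2 uM, 400 nM, 80 nM, 16 nM) for 72 h, two replicates; viability by CCK8. Values are % inhibition of viability relative to untreated cells, plus fitted IC50.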

HCT116 [2] = assay: viability inhibition vs untreated; higher = more cytotoxic; conditions: 72 h

Structure (SMILES)	IC50 (HCT116 [1]; genotype: MTA1-KO) [µM]	IC50 (HCT116 [1]; genotype: control) [µM]	viability inhibition (HCT116 [2]; genotype: MTA1-KO, 16 nM) [%]	viability inhibition (HCT116 [2]; genotype: MTA1-KO, 80 nM) [%]	viability inhibition (HCT116 [2]; genotype: MTA1-KO, 400 nM) [%]	viability inhibition (HCT116 [2]; genotype: MTA1-KO, 2000 nM) [%]	viability inhibition (HCT116 [2]; genotype: MTA1-KO, 10000 nM) [%]	viability inhibition (HCT116 [2]; genotype: control, 16 nM) [%]	viability inhibition (HCT116 [2]; genotype: control, 80 nM) [%]	viability inhibition (HCT116 [2]; genotype: control, 400 nM) [%]	viability inhibition (HCT116 [2]; genotype: control, 2000 nM) [%]	viability inhibition (HCT116 [2]; genotype: control, 10000 nM) [%]
CC(C)c1c(C(=O)Nc2ccccc2)c(-c2ccccc2)c(-c2ccc(F)cc2)n1CC[C@@H](O)C[C@@H](O)CC(=O)O [Atorvastatin Calcium]	> 10	> 10	-2.27	-15.2	-21.3	-22.7	-6.12	6.18	-8.85	-7.43	-3.65	17
COC(=O)c1ccc(O)c(NC(=O)COc2ccc(C34CC5CC(CC(C5)C3)C4)cc2)c1 [LW6]	9.47	> 10	1.16	1.05	-7.41	5.31	49.9	-13.6	-18.1	-10.6	-9.1	-7.79
OC(CNc1ccccc1)Cn1c2ccc(Br)cc2c2cc(Br)ccc21 (centres undefined) [P7C3]	> 10	> 10	-3.09	-13	-15.4	-15.3	6.71	10.1	-2.92	4.14	-4.2	7.54
NC(N)=NCCC[C@H](N)C(=O)O [L-arginine monohydrochloride]	> 10	> 10	-2.61	-19.3	-11.5	-6.84	12.2	-3.45	-8.59	1.36	1.49	23.5
CC(C)c1ccc(C(=O)N=C(N)N)cc1S(C)(=O)=O [Cariporide]	> 10	> 10	-28.1	-33.2	-32	-35.2	-20.9	19.4	-4.81	-9.25	-4.56	22.7
CNc1cc(-c2cccc(Cl)c2Cl)nc(N)n1 [TH287 hydrochloride]	1.6	1.9	18.9	15.8	23	65.5	94.7	4.08	10.5	1.79	63.9	87.3
Cc1[nH]nc(C(F)(F)F)c1Cc1sc2c(c1C(=O)N1C[C@](C)(O)CO1)c(=O)n(C)c(=O)n2C(C)C [AZD3965]	0.576	0.338	-7.19	25.1	22.9	31.7	47.6	0.727	24.8	21.6	40.3	45.9
CC(=O)O[C@H]1C[C@H](O[C@H]2[C@@H](O)C[C@H](O[C@H]3[C@@H](O)C[C@H](O[C@H]4CC[C@@]5(C)[C@H](CC[C@@H]6[C@@H]5C[C@@H](O)[C@]5(C)[C@@H](C7=CC(=O)OC7)CC[C@]65O)C4)O[C@@H]3C)O[C@@H]2C)O[C@H](C)[C@H]1O[C@@H]1O[C@H](CO)[C@@H](O)[C@H](O)[C@H]1O [Lanatoside C]	0.286	0.145	2.02	2.18	87.7	105	107	-11.4	12.6	88	99.5	101
Cn1cc(C[C@@H](N)C(=O)O)c2ccccc21 [Indoximod]	> 10	> 10	-22.6	-22	-24.2	-19	3.49	-15.9	-19.5	-14.6	-4.79	3.27
CN(C)C1CCN(C(=O)c2ccc(NC(=O)Nc3ccc(-c4nc(N5CCOCC5)nc(N5CCOCC5)n4)cc3)cc2)CC1 [Gedatolisib]	0.187	0.305	-5.92	17.3	63.7	80.1	82.8	19.9	26.7	68.6	88.3	103
CC(=O)Nc1ccc(NC(=S)NC(=O)c2ccc(C(C)(C)C)cc2)cc1 [Tenovin-1]	0.456	0.931	-26.3	-21.8	12.8	59.2	62.3	-20.9	-18.3	3.67	73.1	90.4
CCC(=O)N1CCN(c2ccc(-n3c(=O)ccc4cnc5ccc(-c6cnc7ccccc7c6)cc5c43)cc2C(F)(F)F)CC1 [Torin 1]	0.324	1.8	2.4	8.65	52	70.7	80.9	-14.3	-3.02	4.25	56	62.3
O=C(Nc1cccc(C(F)(F)F)c1)Nc1cc(S(=O)(=O)NC2CC2)ccc1-c1ccsc1 [AGI6780]	> 10	> 10	4.84	-6.61	9.84	15.6	49.9	13.6	18.2	3.86	16.8	22.5
Cc1ccc(C(=O)Cn2c3c(sc2=N)CCCC3)cc1 [Pifithrin-α]	> 10	> 10	-1.55	-3.09	-7.19	3.88	32	9.06	2.07	21.3	9.85	22.1
CC1(C)CC[C@]2(C(=O)O)CC[C@]3(C)[C@H](C(=O)C=C4[C@@]5(C)C=C(C#N)C(=O)C(C)(C)[C@@H]5CC[C@]43C)[C@@H]2C1 [Bardoxolone]	3.04	2.54	6.64	-8.28	-9	44.1	103	-7.41	-6.83	-2.5	40.7	103
C=CC[C@@H]1/C=C(\C)C[C@H](C)C[C@H](OC)[C@H]2O[C@@](O)(C(=O)C(=O)N3CCCC[C@H]3C(=O)O[C@H](/C(C)=C/[C@@H]3CC[C@@H](O)[C@H](OC)C3)[C@H](C)[C@@H](O)CC1=O)[C@H](C)C[C@@H]2OC [Tacrolimus]	> 10	> 10	-4.95	-4.18	0.155	-5.39	-7.24	5.2	13.7	18	7.23	7.94
c1ccc(-c2ccc(C(c3ccccc3)n3ccnc3)cc2)cc1 (centres undefined) [Bifonazole]	> 10	> 10	-14.7	-10.9	-14.8	-16.2	16.8	7.85	-6.02	-12.2	-12	18.9
Cc1cc(C2CCCCC2)n(O)c(=O)c1 [Ciclopirox ethanolamine]	7.38	1.88	-18	-22.5	-14.4	-5.78	54.5	-10.2	5.38	5.2	46.4	91.6
O=[N+]([O-])c1ccc(Nc2ccccc2-c2ccccc2)c2nonc12	8.18	> 10	2.01	-8.53	-10.8	-6.96	68.6	9.25	24.7	13.3	14.3	23.9
COCCNC(=O)Nc1ccc2nc(-c3cccs3)c(-c3cccs3)nc2c1 [Ac-CoA Synthase Inhibitor1]	> 10	> 10	-8.17	14.9	15	10.1	6.2	3.53	9.39	-0.277	-10.1	8.5
COC(=O)Nc1ccc(-c2nc(N3CCOCC3)c3cnn(C4CCN(C(=O)OC)CC4)c3n2)cc1 [WYE354]	2.79	> 10	2.45	-4.99	-5.74	4.61	59.8	-11.9	-23.4	-20.1	-21.3	40.4
O=C(/C=C/c1ccc2ccccc2n1)c1ccncc1 [PFK015]	2.71	2.17	-28	-23.8	-16.3	-14	124	-7.66	-7.18	-5.47	34	124
Nc1ccc(-c2ccc3ncc4ccc(=O)n(-c5cccc(C(F)(F)F)c5)c4c3c2)cn1 [Torin 2]	0.134	0.289	-2.56	37.4	77.4	88.6	104	-9.67	18.6	72.5	87	108
Cc1ccc(Oc2nc3cc(-c4ccc(-c5ccccc5)cc4)c(Cl)cc3[nH]2)cc1C(=O)O [MK3903]	5.67	7.34	-12.7	-22.9	-10.6	0.304	68	11.1	8.79	24.8	19.4	59.8
CN(Cc1cnc2nc(N)nc(N)c2n1)c1ccc(C(=O)N[C@@H](CCC(=O)O)C(=O)O)cc1 [Methotrexate]	> 10	8.92	7.18	-2.93	-6.45	-1.18	33	17.9	13.5	16.6	6.71	63.6
O=C(O)c1cccnc1Nc1cccc(C(F)(F)F)c1 [Niflumic acid]	> 10	> 10	-15.2	-17.4	-11.9	-15.8	-9.84	3.66	11.1	-0.91	-2.33	0.571
NCC(=O)Nc1ccc(-n2nc(C(F)(F)F)cc2-c2ccc3c(ccc4ccccc43)c2)cc1	2.57	1.5	-0.655	3.58	10.6	45.3	77	8.04	10.5	9.27	67	74.1
